# Source: ChEMBL document CHEMBL1127153, “Synthesis and anti-arthritic activity of a series of 1-aryl-3-dimethylamino-1,4-dihydroisoquinolines” (1993)
# Key:
# Type in all cases: functional
# Rattus norvegicus [1] = experiment: Antiarthritic activity against rat adjuvant model after peroral administration of 25 mg/Kg of compound, activity expressed as %maximum inhibitory effect on arthritis score.
# Rattus norvegicus [2] = experiment: Antiarthritic activity against rat adjuvant model after peroral administration of 25 mg/Kg of compound, activity expressed as %maximum inhibitory effect on injected paw depth
# Rattus norvegicus [3] = experiment: Antiarthritic activity against rat adjuvant model after peroral administration of 6 mg/Kg of compound, activity expressed as %maximum inhibitory effect on arthritis score.
# Rattus norvegicus [4] = experiment: Antiarthritic activity against rat adjuvant model after peroral administration of 6 mg/kg of compound, activity expressed as %maximum inhibitory effect on injected paw depth; settings: route oral
# Rattus norvegicus [5] = experiment: The compound was examined for cell accumulation in the rat by Arthus reaction after peroral administration at 50 mg/Kg, activity expressed as percent inhibition.; settings: po
# Rattus norvegicus [6] = experiment: The compound was examined for cell accumulation in the rat by pleural exudate model after peroral administration at 25 mg/Kg, activity expressed as percent inhibition.; settings: po
# Rattus norvegicus [7] = experiment: Antiarthritic activity against rat adjuvant model after intravenous administration of 25 mg/Kg of compound, activity expressed as %maximum inhibitory effect on arthritis score.
# Rattus norvegicus [8] = experiment: Antiarthritic activity against rat adjuvant model after intravenous administration of 25 mg/Kg of compound, activity expressed as %maximum inhibitory effect on injected paw depth
# Rattus norvegicus [9] = experiment: Antiarthritic activity against rat adjuvant model after peroral administration of 50 mg/Kg of compound, activity expressed as %maximum inhibitory effect on injected paw depth
# Rattus norvegicus [10] = experiment: Antiarthritic activity against rat adjuvant model after intravenous administration of 50 mg/Kg of compound, activity expressed as %maximum inhibitory effect on arthritis score.
# Rattus norvegicus [11] = experiment: The compound was examined for cell accumulation in the rat by Arthus reaction after peroral administration at 12.5 mg/Kg, activity expressed as percent inhibition.; settings: po
# Rattus norvegicus [12] = experiment: The compound was examined for cell accumulation in the rat by Arthus reaction after peroral administration at 25 mg/Kg, activity expressed as percent inhibition.; settings: po
# Rattus norvegicus [13] = experiment: The compound was examined for cell accumulation in the rat by Arthus reaction after peroral administration at 6.25 mg/Kg, activity expressed as percent inhibition.; settings: po
# Rattus norvegicus [14] = experiment: The compound was examined for cell accumulation in the rat by pleural exudate model after peroral administration at 12.5 mg/Kg, activity expressed as percent inhibition.; settings: po
# Rattus norvegicus [15] = experiment: The compound was examined for cell accumulation in the rat by pleural exudate model after peroral administration at 3 mg/Kg, activity expressed as percent inhibition.; settings: po
# Rattus norvegicus [16] = experiment: The compound was examined for cell accumulation in the rat by pleural exudate model after peroral administration at 6 mg/Kg, activity expressed as percent inhibition.; settings: po
# Rattus norvegicus [17] = experiment: The compound was examined for cell accumulation in the rat by polyvinyl sponge model after peroral administration at 10 mg/Kg, activity expressed as percent inhibition.; settings: po
# Rattus norvegicus [18] = experiment: The compound was examined for cell accumulation in the rat by polyvinyl sponge model after peroral administration at 5 mg/Kg, activity expressed as percent inhibition.; settings: po
# Rattus norvegicus [19] = experiment: Antiarthritic activity against rat adjuvant model after peroral administration of 10 mg/Kg of compound, activity expressed as %maximum inhibitory effect on arthritis score.
# Rattus norvegicus [20] = experiment: Antiarthritic activity against rat adjuvant model after peroral administration of 10 mg/Kg of compound, activity expressed as %maximum inhibitory effect on injected paw depth
# Rattus norvegicus [21] = experiment: Antiarthritic activity against rat adjuvant model after peroral administration of 12.5 mg/Kg of compound, activity expressed as %maximum inhibitory effect on arthritis score.
# Rattus norvegicus [22] = experiment: Antiarthritic activity against rat adjuvant model after peroral administration of 12.5 mg/Kg of compound, activity expressed as %maximum inhibitory effect on injected paw depth
# Rattus norvegicus [23] = experiment: The compound was examined for cell accumulation in the rat by Arthus reaction after peroral administration at 12.5mg/Kg, activity expressed as percent inhibition.; settings: po
# Rattus norvegicus [24] = experiment: The compound was examined for cell accumulation in the rat by pleural exudate model after peroral administration at 12 mg/Kg, activity expressed as percent inhibition.; settings: po
# Rattus norvegicus [25] = experiment: The compound was examined for cell accumulation in the rat by polyvinyl sponge model after peroral administration at 25 mg/Kg, activity expressed as percent inhibition.; settings: po
# Rattus norvegicus [26] = experiment: Antiarthritic activity against rat adjuvant model after peroral administration of 25 mg/Kg of compound: activity expressed as %maximum inhibitory effect on arthritis score.
# Rattus norvegicus [27] = experiment: Antiarthritic activity against rat adjuvant model after peroral administration of 12.5 mg/Kg of compound: activity expressed as %maximum inhibitory effect on arthritis score.
# Rattus norvegicus [28] = experiment: The compound was examined for cell accumulation in the rat by pleural exudate model after oral administration at 25 mg/Kg, activity expressed as percent inhibition.
# Rattus norvegicus [29] = experiment: The compound was examined for cell accumulation in the rat by polyvinyl sponge model after peroral administration at 12.5 mg/Kg, activity expressed as percent inhibition.; settings: po
# Rattus norvegicus [30] = experiment: Antiarthritic activity against rat adjuvant model after peroral administration of 5 mg/Kg of compound, activity expressed as %maximum inhibitory effect on arthritis score.
# Rattus norvegicus [31] = experiment: Antiarthritic activity against rat adjuvant model after peroral administration of 5 mg/Kg of compound, activity expressed as %maximum inhibitory effect on injected paw depth
structure (smiles),measurement,setting,value
CN(C)C1=NC(c2ccc(Cl)cc2)c2cc(Cl)ccc2C1.Cl (stereo not drawn),Max inhibitory effect,Rattus norvegicus [1],54%
same,Max inhibitory effect,Rattus norvegicus [2],86%
same,Max inhibitory effect,Rattus norvegicus [3],34%
same,Max inhibitory effect,Rattus norvegicus [4],36%
COc1ccc2c(c1)CC(N(C)C)=NC2c1ccc(Cl)cc1.Cl (stereo not drawn),Max inhibitory effect,Rattus norvegicus [1],11%
same,Max inhibitory effect,Rattus norvegicus [2],0%
Cl.Clc1ccc(C2N=C(NCc3ccccc3)Cc3ccccc32)cc1 (stereo not drawn),Max inhibitory effect,Rattus norvegicus [1],-7%
same,Max inhibitory effect,Rattus norvegicus [2],10%
Br.CN(C)C1=NC(c2ccc(Cl)cc2)c2ccc(O)cc2C1 (stereo not drawn),inhibition in vivo at 50 mg/kg,Rattus norvegicus [5],18%
same,inhibition in vivo at 25 mg/kg,Rattus norvegicus [6],21%
same,Max inhibitory effect,Rattus norvegicus [7],44%
same,Max inhibitory effect,Rattus norvegicus [8],46%
same,Max inhibitory effect,Rattus norvegicus [9],5%
same,Max inhibitory effect,Rattus norvegicus [10],16%
CN(C)C1=NC(c2ccccc2)c2ccccc2C1.Cl (stereo not drawn),Max inhibitory effect,Rattus norvegicus [1],13%
same,Max inhibitory effect,Rattus norvegicus [2],-6%
CN(C)C1=NC(c2cccc(Cl)c2)c2ccccc2C1.Cl (stereo not drawn),inhibition in vivo at 12.5 mg/kg,Rattus norvegicus [11],30%
same,inhibition in vivo at 25 mg/kg,Rattus norvegicus [12],29%
same,inhibition in vivo at 50 mg/kg,Rattus norvegicus [5],42%
same,inhibition in vivo at 6.25 mg/kg,Rattus norvegicus [13],31%
same,inhibition in vivo at 12.5 mg/kg,Rattus norvegicus [14],41%
same,inhibition in vivo at 3 mg/kg,Rattus norvegicus [15],36%
same,inhibition in vivo at 6 mg/kg,Rattus norvegicus [16],41%
same,inhibition in vivo at 10 mg/kg,Rattus norvegicus [17],35%
same,inhibition in vivo at 5 mg/kg,Rattus norvegicus [18],8%
same,Max inhibitory effect,Rattus norvegicus [1],53%
same,Max inhibitory effect,Rattus norvegicus [2],84%
same,Max inhibitory effect,Rattus norvegicus [19],29%
same,Max inhibitory effect,Rattus norvegicus [20],32%
CN(C)C1=NC(c2ccc([N+](=O)[O-])cc2)c2ccccc2C1.Cl (stereo not drawn),Max inhibitory effect,Rattus norvegicus [21],30%
same,Max inhibitory effect,Rattus norvegicus [22],33%
CN(C)C1=NC(c2ccccc2F)c2ccccc2C1.Cl (stereo not drawn),inhibition in vivo at 12.5 mg/kg,Rattus norvegicus [23],28%
same,inhibition in vivo at 25 mg/kg,Rattus norvegicus [12],44%
same,inhibition in vivo at 50 mg/kg,Rattus norvegicus [5],55%
same,inhibition in vivo at 12 mg/kg,Rattus norvegicus [24],33%
same,inhibition in vivo at 10 mg/kg,Rattus norvegicus [17],12%
same,inhibition in vivo at 25 mg/kg,Rattus norvegicus [25],24%
same,Max inhibitory effect,Rattus norvegicus [1],37%
same,Max inhibitory effect,Rattus norvegicus [2],13%
Cl.Clc1ccc(C2N=C(N3CCOCC3)Cc3ccccc32)cc1 (stereo not drawn),Max inhibitory effect,Rattus norvegicus [1],5%
same,Max inhibitory effect,Rattus norvegicus [2],7%
CN(C)C1=NC(c2ccc(Cl)cc2)c2ccccc2C1 (stereo not drawn),Max inhibitory effect,Rattus norvegicus [1],29%
same,Max inhibitory effect,Rattus norvegicus [2],-1%
CN(C)C1=NC(c2ccccc2Cl)c2ccccc2C1.Cl (stereo not drawn),inhibition in vivo at 25 mg/kg,Rattus norvegicus [12],19%
same,inhibition in vivo at 50 mg/kg,Rattus norvegicus [5],34%
same,inhibition in vivo at 12.5 mg/kg,Rattus norvegicus [14],28%
same,inhibition in vivo at 25 mg/kg,Rattus norvegicus [6],48%
same,inhibition in vivo at 6 mg/kg,Rattus norvegicus [16],27%
same,inhibition in vivo at 25 mg/kg,Rattus norvegicus [25],19%
same,Max inhibitory effect,Rattus norvegicus [26],36%
same,Max inhibitory effect,Rattus norvegicus [2],30%
same,Max inhibitory effect,Rattus norvegicus [27],10%
same,Max inhibitory effect,Rattus norvegicus [22],12%
Cl.NC1=NC(c2ccc(Cl)cc2)c2ccccc2C1 (stereo not drawn),Max inhibitory effect,Rattus norvegicus [1],-3%
same,Max inhibitory effect,Rattus norvegicus [2],0%
CN(C)C1=NC(c2ccc(N)cc2)c2ccccc2C1.Cl (stereo not drawn),Max inhibitory effect,Rattus norvegicus [1],9%
same,Max inhibitory effect,Rattus norvegicus [2],6%
CN(C)C1=NC(c2ccc(Cl)cc2)c2ccccc2C1.Cl (stereo not drawn),inhibition in vivo at 25 mg/kg,Rattus norvegicus [28],28%
same,inhibition in vivo at 12.5 mg/kg,Rattus norvegicus [14],21%
same,inhibition in vivo at 6 mg/kg,Rattus norvegicus [16],19%
same,inhibition in vivo at 12.5 mg/kg,Rattus norvegicus [29],15%
same,inhibition in vivo at 25 mg/kg,Rattus norvegicus [25],30%
same,Max inhibitory effect,Rattus norvegicus [30],18%
same,Max inhibitory effect,Rattus norvegicus [31],30%
same,Max inhibitory effect,Rattus norvegicus [21],44%
same,Max inhibitory effect,Rattus norvegicus [22],80%
CN(C)C1=NC(c2ccc(Cl)cc2Cl)c2ccccc2C1.Cl (stereo not drawn),Max inhibitory effect,Rattus norvegicus [21],15%
same,Max inhibitory effect,Rattus norvegicus [22],44%
